Experimental data: EPA's ToxRefDB 2

What was measured:
rat [1] = conditions: Multigenerational reproductive toxicity study, Oral, Feed, dose end: 3 generation, group: offspring
rat [2] = conditions: Prenatal developmental toxicity study, wistar, Oral, Gavage/Intubation, dose end: 19 GD
rat [3] = conditions: Subchronic oral toxicity in rodents, wistar, Feed, dose end: 90 day, group: systemic
dog [4] = conditions: Subchronic oral toxicity in nonrodent, beagle, Capsule, dose end: 90 day, group: systemic
rat [5] = conditions: Subchronic oral toxicity in rodents, wistar, Feed, dose end: 28 day, group: systemic
rat [6] = conditions: Combined chronic toxicity/carcinogenicity, sprague dawley, Oral, Feed, dose end: 24 month, group: systemic
mouse [7] = conditions: Carcinogenicity, cd1, Oral, Feed, dose end: 18 month, group: systemic
rat [8] = conditions: Subchronic oral toxicity in rodents, other, Feed, dose end: 90 day, group: systemic
dog [9] = conditions: Chronic toxicity; beagle; Oral; Feed; dose end: 52 week; group: systemic; systemic / pathology microscopic / eye / [other] + systemic / pathology microscopic / eye / cataract + systemic / pathology microscopic / …
dog [10] = conditions: Subchronic oral toxicity in nonrodent, beagle, Feed, dose end: 91 day, group: systemic
rat [11] = conditions: Multigenerational reproductive toxicity study, other, Oral, Feed, dose end: 2 generation
mouse [12] = conditions: Subchronic oral toxicity in rodents, cd1, Feed, dose end: 13 week, group: systemic
rat [13] = conditions: Multigenerational reproductive toxicity study, other, Oral, Water, dose end: 2 generation
rabbit [14] = conditions: Prenatal developmental toxicity study, new zealand white, Oral, Gavage/Intubation, dose end: 27 GD, group: maternal
dog [15] = conditions: Sub-acute repeat dose toxicity, beagle, Oral, Water, dose end: 28 day, group: systemic
rat [16] = conditions: Combined chronic toxicity/carcinogenicity, sprague dawley, Oral, Water, dose end: 104 week, group: systemic
rabbit [17] = conditions: Prenatal developmental toxicity study, new zealand white, Oral, Gavage/Intubation, dose end: 19 GD
rat [18] = conditions: Multigenerational reproductive toxicity study, sprague dawley, Oral, Water, dose end: 2 generation
[19] = systemic / in life observation / body weight / offspring (pup) weight + systemic / in life observation / food consumption / food consumption
[20] = group: developmental, developmental / developmental malformation / bone / full supernumerary
[21] = group: maternal, systemic / organ weight / liver / absolute + systemic / pathology microscopic / kidney / vacuolization + systemic / pathology microscopic / …
[22] = systemic / pathology microscopic / kidney / hyaline droplet
[23] = systemic / pathology microscopic / kidney / hyaline droplet + systemic / clinical chemistry / alanine aminotransferase (alt/sgpt) / alanine …
[24] = systemic / clinical chemistry / protein / protein + systemic / in life observation / clinical signs / vomiting + systemic / organ weight / …
[25] = systemic / clinical chemistry / calcium / calcium + systemic / clinical chemistry / phosphorus / phosphorus + systemic / pathology …
[26] = systemic / hematology / anemia / anemia - hemolytic + systemic / in life observation / body weight / body weight gain + systemic / …
[27] = systemic / pathology microscopic / liver / fatty change + systemic / pathology microscopic / liver / necrosis + systemic / pathology …
[28] = systemic / clinical chemistry / globulins / globulins
[29] = systemic / hematology / erythrocyte (rbc) count differential / erythrocyte (rbc) + systemic / hematology / hemoglobin (hgb) / hemoglobin (…
[30] = systemic / hematology / anemia / anemia - nos + systemic / hematology / erythrocyte (rbc) count differential / erythrocyte (rbc) + systemic…
[31] = group: offspring, systemic / in life observation / body weight / litter weight + developmental / offspring survival late / viability index / viability index
[32] = group: parental, systemic / clinical chemistry / alanine aminotransferase (alt/sgpt) / alanine aminotransferase (alt/sgpt)
[33] = group: parental, systemic / clinical chemistry / sorbitol dehydrogenase / sorbitol dehydrogenase + systemic / clinical chemistry / alanine aminotransferase (…
[34] = systemic / hematology / platelet / platelet
[35] = group: offspring, systemic / in life observation / body weight / offspring (pup) weight + systemic / organ weight / kidney / absolute + systemic / organ …
[36] = group: parental, systemic / in life observation / water consumption / water consumption
[37] = group: parental, systemic / in life observation / water consumption / water consumption + systemic / in life observation / body weight / body weight + …
[38] = group: reproductive, reproductive / reproductive performance / fertility / fertility
[39] = systemic / in life observation / body weight / body weight + systemic / in life observation / food consumption / food consumption + systemic…
[40] = systemic / pathology microscopic / nose / inflammation
[41] = systemic / pathology microscopic / nose / inflammation + systemic / pathology microscopic / stomach / hypertrophy
[42] = systemic / in life observation / water consumption / water consumption
[43] = group: developmental, developmental / developmental malformation / aortic arch / dilated + developmental / developmental malformation / bone / [other] + …
[44] = group: maternal, systemic / in life observation / body weight / body weight gain + systemic / in life observation / clinical signs / defecation + systemic / …
[45] = group: offspring, reproductive / offspring survival early / dead fetuses / dead fetuses + reproductive / offspring survival early / live fetuses / live …
[46] = group: parental, systemic / in life observation / food consumption / food consumption + systemic / in life observation / water consumption / water …
[47] = group: reproductive, reproductive / reproductive performance / dystocia / dystocia
[48] = group: reproductive, reproductive / reproductive performance / dystocia / dystocia + reproductive / reproductive performance / postimplantation loss / …

CCCCCCCCCc1ccc(OP(Oc2ccc(CCCCCCCCC)cc2)Oc2ccc(CCCCCCCCC)cc2)cc1 [Phenol, nonyl-, phosphite (3:1)]
LOAEL (rat [1]; [19]): > 500 mg/kg/day | NEL (rat [1]; [19]): 50 mg/kg/day | NOAEL (rat [1]; [19]): ≥ 500 mg/kg/day | LEL (rat [1]; systemic / in life observation / food consumption / food consumption): 167 mg/kg/day

N#CCNC(=O)c1cnccc1C(F)(F)F [Flonicamid]
LEL (rat [2]; [20]): 500 mg/kg/day | LOAEL (rat [2]; [20]): 500 mg/kg/day | NEL (rat [2]; [20]): 100 mg/kg/day | NOAEL (rat [2]; [20]): 100 mg/kg/day | LEL (rat [2]; [21]): 500 mg/kg/day | LOAEL (rat [2]; [21]): 500 mg/kg/day | NEL (rat [2]; [21]): 100 mg/kg/day | NOAEL (rat [2]; [21]): 100 mg/kg/day | LEL (rat [3]; [22]): 12.1 mg/kg/day | LOAEL (rat [3]; [22]): 60 mg/kg/day | NEL (rat [3]; [23]): 3.08 mg/kg/day | NOAEL (rat [3]; [23]): 12.1 mg/kg/day | LEL (dog [4]; [24]): 20 mg/kg/day | LOAEL (dog [4]; [24]): 20 mg/kg/day | NOAEL (dog [4]; [24]): 8 mg/kg/day | NEL (dog [4]; systemic / in life observation / clinical signs / ataxia + systemic / in life observation / clinical signs / defecation (diarrhea) + …): 8 mg/kg/day | LEL (rat [5]; [25]): 7.47 mg/kg/day | NEL (rat [5]; [25]): 3.61 mg/kg/day | NOAEL (rat [5]; [25]): 7.47 mg/kg/day | LOAEL (rat [5]; [22]): 36.5 mg/kg/day

CC1(c2ccc(Oc3ccccc3)cc2)OC(=O)N(Nc2ccccc2)C1=O (stereo not given) [Famoxadone]
LOAEL (rat [6]; systemic / hematology / anemia / anemia - hemolytic + systemic / in life observation / body weight / body weight gain): 10.7 mg/kg/day | LEL (rat [6]; [26]): 10.7 mg/kg/day | NEL (rat [6]; [26]): 2.15 mg/kg/day | NOAEL (rat [6]; [26]): 2.15 mg/kg/day | LEL (mouse [7]; systemic / organ weight / liver / absolute + systemic / organ weight / liver / relative to body weight): 95.6 mg/kg/day | LOAEL (mouse [7]; [27]): 274 mg/kg/day | NEL (mouse [7]; [27]): 6.78 mg/kg/day | NOAEL (mouse [7]; [27]): 95.6 mg/kg/day | LEL (rat [8]; [28]): 3.34 mg/kg/day | NEL (rat [8]; [28]): < 3.34 mg/kg/day | LOAEL (rat [8]; [29]): 13 mg/kg/day | NOAEL (rat [8]; [29]): 3.34 mg/kg/day | LEL (dog [9]): 8.8 mg/kg/day | LOAEL (dog [9]): 8.8 mg/kg/day | NEL (dog [9]): 1.2 mg/kg/day | NOAEL (dog [9]): 1.2 mg/kg/day | LEL (dog [10]; [30]): 1.4 mg/kg/day | NEL (dog [10]; [30]): < 1.4 mg/kg/day | LOAEL (dog [10]; systemic / pathology microscopic / eye / cataract + systemic / pathology microscopic / eye / cataract, cortical): 10 mg/kg/day | NOAEL (dog [10]; systemic / pathology microscopic / eye / cataract + systemic / pathology microscopic / eye / cataract, cortical + systemic / clinical …): 1.3 mg/kg/day | LOAEL (rat [11]; group: offspring, systemic / in life observation / body weight / litter weight): 53.3 mg/kg/day | LEL (rat [11]; [31]): 53.3 mg/kg/day | NEL (rat [11]; [31]): 14.2 mg/kg/day | NOAEL (rat [11]; [31]): 14.2 mg/kg/day | LEL (rat [11]; [32]): 1.45 mg/kg/day | NEL (rat [11]; [32]): < 1.45 mg/kg/day | LOAEL (rat [11]; [33]): 44.7 mg/kg/day | NOAEL (rat [11]; [33]): 11.3 mg/kg/day | LEL (mouse [12]; [34]): 5.89 mg/kg/day | NEL (mouse [12]; [34]): < 5.89 mg/kg/day | NOAEL (mouse [12]; systemic / organ weight / liver / absolute + systemic / organ weight / liver / relative to body weight + systemic / clinical chemistry / …): 62.4 mg/kg/day | LOAEL (mouse [12]; systemic / organ weight / liver / absolute + systemic / organ weight / liver / relative to body weight + systemic / hematology / anemia / …): 534 mg/kg/day

O=[N+]([O-])C(Br)(CO)CO [Bronopol]
NEL (rat [13]; group: offspring, systemic / in life observation / body weight / offspring (pup) weight): 70 mg/kg/day | LEL (rat [13]; [35]): 200 mg/kg/day | LOAEL (rat [13]; [35]): > 200 mg/kg/day | NOAEL (rat [13]; [35]): ≥ 200 mg/kg/day | LEL (rat [13]; [36]): 25 mg/kg/day | NEL (rat [13]; [36]): < 25 mg/kg/day | LOAEL (rat [13]; [37]): > 200 mg/kg/day | NOAEL (rat [13]; [37]): ≥ 200 mg/kg/day | LEL (rat [13]; [38]): 200 mg/kg/day | LOAEL (rat [13]; [38]): > 200 mg/kg/day | NEL (rat [13]; [38]): 70 mg/kg/day | NOAEL (rat [13]; [38]): ≥ 200 mg/kg/day | LOAEL (rabbit [14]; systemic / in life observation / body weight / body weight + systemic / in life observation / food consumption / food consumption): 40 mg/kg/day | LEL (rabbit [14]; [39]): 40 mg/kg/day | NEL (rabbit [14]; [39]): 10 mg/kg/day | NOAEL (rabbit [14]; [39]): 10 mg/kg/day | LEL (dog [15]; [40]): 4.1 mg/kg/day | NEL (dog [15]; [40]): < 4.1 mg/kg/day | LOAEL (dog [15]; [41]): > 32.6 mg/kg/day | NOAEL (dog [15]; [41]): ≥ 32.6 mg/kg/day | LEL (rat [16]; [42]): 10 mg/kg/day | NEL (rat [16]; [42]): < 10 mg/kg/day | LOAEL (rat [16]; systemic / in life observation / water consumption / water consumption + systemic / in life observation / body weight / body weight gain + …): 40 mg/kg/day | NOAEL (rat [16]; systemic / in life observation / water consumption / water consumption + systemic / pathology microscopic / stomach / squamous cell …): 10 mg/kg/day | LEL (rabbit [17]; [43]): 80 mg/kg/day | LOAEL (rabbit [17]; [43]): 80 mg/kg/day | NEL (rabbit [17]; [43]): 40 mg/kg/day | NOAEL (rabbit [17]; [43]): 40 mg/kg/day | LEL (rabbit [17]; [44]): 80 mg/kg/day | LOAEL (rabbit [17]; [44]): 80 mg/kg/day | NEL (rabbit [17]; [44]): 40 mg/kg/day | NOAEL (rabbit [17]; [44]): 40 mg/kg/day | LEL (rat [18]; [45]): 150 mg/kg/day | LOAEL (rat [18]; [45]): 150 mg/kg/day | NEL (rat [18]; [45]): 50 mg/kg/day | NOAEL (rat [18]; [45]): 50 mg/kg/day | LEL (rat [18]; [46]): 50 mg/kg/day | LOAEL (rat [18]; [46]): 50 mg/kg/day | NEL (rat [18]; [46]): 10 mg/kg/day | NOAEL (rat [18]; [46]): 10 mg/kg/day | NEL (rat [18]; [47]): 50 mg/kg/day | NOAEL (rat [18]; [47]): 50 mg/kg/day | LEL (rat [18]; [48]): 150 mg/kg/day | LOAEL (rat [18]; [48]): 150 mg/kg/day
